The record followed here is US20240277708A1, “Use of [1,2,4] Triazolo [4,3-B] Pyridazine Derivative For Preventing and Treating Senescence and Senescence-Related Diseases” (The Eighth Affiliated Hospital, Sun Yat-Sen University, priority 2023, published 2024).

Test [1] concerns BJ cells. Put plainly: VP16-induced cellular senescence, SA-β-gal staining, BJ cells. It counts as cell-based, Human. The settings on record: C1632 120 μM, VP16 40 μM for 4-7 days, FIG. 1A, 1B. The procedure:
(§1) MRC5 and BJ cells were cultured in DMEM low-glucose medium containing 10% FBS. The cells were passaged or plated at a ratio of 1:3.0.5×10^5 cells were plated in 12-well plates and in the next day treated with VP16 at a final concentration of 40 μM for 4-7 days to induce cellular senescence. A cellular senescence model was constructed. While inducing cellular senescence, C1632 with a final concentration of 120 μM is added. The effect of C1632 on the senescence of BJ and MRC5 cells was detected by SA-β-gal staining, and the effect of C1632 on cellular senescence was studied.

In test [2] the test system is senescent TC-1 cells. As to the kind of experiment: T cell killing assay (LDH release) on bleomycin-induced senescent TC-1 cells with immune cells from treated IPF mice. The settings on record: ratio 1:50, 4 h. It counts as cell-based, mouse. As to the method: 1, The senescence of TC-1 cells was induced with bleomycin, and the senescence of TC-1 cells was reflected through SA-β-Gal staining (FIG. 4A).
2, T cell killing assay: Bleomycin-induced senescent TC1 cells were plated at 10, 000/well in 96-well plates. The cell culture supernatant was discarded the next day, and then, PBMCS, CD3^+ T cells, and CD8^+ T cells isolated from normal mice, saline treated idiopathic pulmonary fibrosis (IPF) mice and C1632-treated IPF mice were add at a ratio of 1:50. After incubation at 37° C. for 4 h, the supematantwas obtained after centrifugation. LDH enzyme was released from the killed senescent cells, and the killing effect of immune cells on senescent cells was detected by LDH kit. Bleomycin at a dose of 2 mg/kg was sprayed into the lungs of mice to construct IPF mouse model, each group of the above experiments had at least 6 mice.
Isolation and culture of CD8^+ T cells: Mouse spleens were ground under sterile conditions and filtered through a 200-mesh sieve. The filtered cells were sorted by CD8^+ T cell isolation kit (biolegend). The sorted T cells were cultured in PRMI1640 medium containing 10% FBS, 5 μg/mL anti-mouse CD28 antibody (biolegend), and 10 ng/mL IL-2 in the plates coated overnight with 5 μg/mL CD3 antibody (biolegend) until use.

For test [3], the system named is C57BL/6 mice, CCl4 liver fibrosis model. Put plainly: CCl4-induced liver fibrosis mouse model, collagen staining of liver sections. Format: in vivo. The settings on record: 17 mg/kg C1632 after each CCl4 injection. As to the method: C57BL/6 mice were divided into normal control group, CCl4 group and CCl4+C1632 group, with 7 mice in each group. The mice in the CCl4+C1632 group were injected with 17 mg/kg C1632 for treatment after each injection of CCl4. At the end of the experiment, the mice were sacrificed, and the obtained livers were fixed with 4% paraformaldehyde, dehydrated, embedded and sliced.
1. The collagen fibers in the tissue were stained blue through Masson staining, and the muscle fibers and cytoplasm were stained red through Masson staining. The sections were routinely deparaffinized to water and stained with Weigert's hematoxylin for 5 to 10 minutes. The sections were differentiated with 1% hydrochloric alcohol differentiation solution and washed with water. The sections was returned blue by using Masson bluing solution and washed with water for 1 min. The sections were stained with Ponceau fuchsin staining solution for 5 to 10 min, soaked in 1% glacial acetic acid for a moment, then washed with the phosphomolybdic acid solution for 1 to 2 min. The sections were stained in the aniline blue staining solution for 1 to 2 min after washed with 1% glacial acetic acid for 1 min. The sections were rinsed with 1% glacial acetic acid in three consecutive cylinders for about 8 s, then successively dehydrated by three consecutive cylinders of absolute ethanol for about 5 s, 10 s, and 30 s, and dehydrated by two cylinders of n-butyl alcohol for 30 s and 2 min in turn, and finally permeabilized by two cylinders of xylene for 5 min each time, and sealed with neutral gum.
2. To further verify the effect of C1632 on liver fibrosis, the above tissue sections were subjected to Van Gieson (VG) staining, which was a mature connective tissue staining method to distinguish collagen fibers from muscle fibers. Paraffin sections were deparaffinized into water, and then placed into VG staining solution prepared with acid fuchsin and picric acid, stained for 1 min, quickly washed with water, and quickly dehydrated in three cylinders of absolute ethanol. The sections were placed into xylene for permeabilizing, then sealed with neutral gum and photographed under a microscope.
The sections deparaffinized to water were oxidized with Gordon-Sweets oxidizer for 5 min. After washing with water, the sections were bleached with oxalic acid solution for 1 to 2 min. After washing with distilled water, the sections were mordanted with ferric ammonium sulfate solution for 5 min, then rinsed briefly with water. Gordon-Sweets silver ammonia solution was dropwise added for staining for 3 min. The sections were briefly washed with distilled water, reduced with Gordon-Sweets reducing agent for 1 min and rinsed under running water for 10 min. The nucleus was stained with nuclear fast red staining solution for 5-10 min. […]

For test [4], the system named is MRC5 cells. As to the kind of experiment: VP16-induced cellular senescence, SA-β-gal staining, MRC5 cells. The settings on record: C1632 120 μM, VP16 40 μM for 4-7 days, FIG. 1A, 1C. Format: cell-based, Human. The procedure:
as §1

In test [5] the test system is C57BL/c mice, VD3-induced vascular calcification. Put plainly: VD3-induced aortic vascular calcification mouse model, alizarin red staining. The settings on record: VD3 500 IU/g/day for 2 days, C1632 68 mg/kg twice a week, after 6 days; FIG. 15. It counts as in vivo. The procedure:
C57BL/c mice were intraperitoneally injected with VD3 at a dose of 500 IU/g/day for 2 consecutive days, and then divided into: (1) Saline group; (3) C1632 group, 10 mice in each group. C1632 was administered twice a week, and CKD mice were treated with C1632 at a dose of 68 mg/kg of body weight each time. After 6 days, the mice were sacrificed, and the aortic blood vessels were dissected for alizarin red staining and hydroxyapatite staining.

With `CC(=O)N(C)c1cccc(-c2ccc3nnc(C)n3n2)c1` [C1632], the “VP16-induced senescence (β-gal-positive cell rate) in BJ cells” value in test [1] is “inhibits VP16-induced senescence”. In addition, in test [2] (CD3+ T cells from C1632-treated IPF mice vs saline-treated IPF mice, FIG. 4C), the “Killing activity of CD3+ T cells against senescent TC-1 cells (LDH release)” value is given as “significantly enhanced killing activity”. Further, in test [2] (CD8+ T cells from C1632-treated IPF mice vs normal mice and saline-treated IPF mice, FIG. 4D), the “Killing activity of CD8+ T cells against senescent cells (LDH release)” value was “significantly higher”. Besides, the “Killing activity of PBMC against senescent TC-1 cells (LDH release)” value in test [2] (PBMC from C1632-treated IPF mice vs saline-treated IPF mice, FIG. 4B) is given as “significantly enhanced killing activity”. Further, the “Collagen fibers in liver tissue, Masson staining” value in test [3] (twice a week for 6 weeks, FIG. 5) is given as “can inhibit the expression of collagen fibers induced by CCl4”. The “Collagen fiber levels in liver tissue, Van Gieson (VG) staining” value in test [3] (FIG. 6) is on record as “significantly reduces collagen fiber levels”. Further, the “Reticular fibers in liver tissue, reticular fiber staining” value in test [3] (FIG. 7) is “can inhibit the expression of reticular fibers induced by CCl4”. In addition, in test [3] (polarized light, FIG. 8), the “Type I collagen production in liver, Sirius red staining” value is reported as “can significantly inhibit the production of type I collagen”. The “VP16-induced senescence (β-gal-positive cell rate) in MRC5 cells” value in test [4] is on record as “inhibits VP16-induced senescence”. Moreover, the “Aortic vascular calcification, alizarin red staining” value in test [5] was “significantly inhibits the progression of aortic vascular calcification”.
